# Assay results from patent US7491794B2, “Macrocyclic compounds as inhibitors of viral replication” (Intermune, Inc., priority 2003, dated 2009).
# Counter-ions that a name gives are not always drawn.
# Target: T1, NS3-NS4A protease (Hepatitis C virus genotype 1a, UniProt P27958)
# T1 construct: Recombinant E. coli or Baculovirus full-length NS3 was diluted to 3.33 μM with assay buffer; made in house; host or cells: E. coli or baculovirus (BV) system
# Assay: NS3-NS4A protease assay (NS3 inhibition assay, RETS1 substrate), Section B
# Assay type: biochemical
# Details: read-out: NS3-NS4A IC50
# Protocol: NS3 complex formation with NS4A-2
# Recombinant E. coli or Baculovirus full-length NS3 was diluted to 3.33 μM with assay buffer and the material transferred to an eppendorf tube and place in water bath in 4° C. refrigerator. The appropriate amount of NS4A-2 to 8.3 mM in assay buffer was added to equal the volume of NS3 in step 2.1.1 (conversion factor −3.8 mg/272 μL assay buffer). The material was transferred to an eppendorf tube and placed in a water bath in a 4° C. refrigerator.
# After equilibration to 4° C., equal volumes of NS3 and NS4A-2 solutions were combined in an eppendorf tube, mixed gently with a manual pipettor, and the mixture incubated for 15 minutes in the 4° C. water bath. Final concentrations in the mixture were 1.67 μM NS3, 4.15 mM NS4A-2 (2485-fold molar excess NS4A-2).
# After 15 minutes at 4° C., the NS3/NS4A-2 eppendorf tube was removed and placed in a room temperature water bath for 10 minutes. NS3/NS4A-2 was aliquoted at appropriate volumes and store at −80° C. (E. coli NS3 run at 2 nM in assay, aliquot at 25 μL. BV NS3 run at 3 nM in assay, aliquot at 30 μL.
# Step 2.2.5. Sample compounds were dissolved to 10 mM in DMSO then diluted to 2.5 mM (1:4) in DMSO.
# Step 2.2.6. The E. coli NS3/NS4A-2 was diluted to 4 nM NS3 (1:417.5 of 1.67 μM stock−18 μL 1.67 μM stock+7497 μL assay buffer).
# The BV NS3/NS4A-2 was diluted to 6 nM NS3 (1:278.3 of 1.67 μM stock−24 μL 1.67 μM stock+6655 μL assay buffer).
# Step 2.2.7. Using the manual multichannel pipettor, and being careful not to introduce bubbles into the plate, 50 μL assay buffer was added to wells A01-H01 of a black Costar 96-well polypropylene storage plate.
# Step 2.2.8. Using the manual multichannel pipettor, and being careful not to introduce bubbles into the plate, 50 μL of diluted NS3/NS4A-2 from step 2.2.6 was added to wells A02-H12 of plate in step 2.2.7.
# Step 2.2.9. Using the manual multichannel pipettor, and being careful not to introduce bubbles into the plate, 25 μL of the wells in drug dilution plate in step 2.2.5 were transferred to corresponding wells in assay plate in step 2.2.8. The tips on multichannel pipettor were changed for each row of compounds transferred.
# Step 2.2.10. Using the manual multichannel pipettor, and being careful not to introduce bubbles into the plate, the wells from the assay plate in step 2.2.9 were mixed by aspirating and dispensing 35 μL of the 75 μL in each well five times. The tips on multichannel pipettor were changed for each row of wells mixed.
# Step 2.2.11. The plate was covered with a polystyrene plate lid, and the plate from step 2.2.10 containing NS3 protease and sample compounds was pre-incubated 10 minutes at room temperature.
# While the plate from step 2.2.11 was pre-incubating, the RETS1 substrate was diluted in a 15 mL polypropylene centrifuge tube. The RETS1 substrate was diluted to 8 μM (1:80.75 of 646 μM stock−65 μL 646 μM stock+5184 μL assay buffer).
# After the plate in step 2.2.11 was done pre-incubating, and using the manual multichannel, 25 μL of substrate was added to all wells on the plate. The contents of the wells were quickly mixed, as in step 2.2.10, but mixing 65 μL of the 100 μL in the wells.
# The plate was read in kinetic mode on the Molecular Devices SpectraMax Gemini XS plate reader. Reader settings: Read time: 30 minutes, Interval: 36 seconds, Reads: 51, Excitation λ: 335 nm, Emission λ: 495 nm, cutoff: 475 nm, Automix: off, Calibrate: once, PMT: high, Reads/well: 6, Vmax pts: 21 or 28/51 depending on length of linearity of reaction.
# IC50s were determined using a four parameter curve fit equation, and converted to Ki's using the following Km's:
# where Ki=IC50/(1+[S]/Km))
# T1 sequence (P27958 1027-1657): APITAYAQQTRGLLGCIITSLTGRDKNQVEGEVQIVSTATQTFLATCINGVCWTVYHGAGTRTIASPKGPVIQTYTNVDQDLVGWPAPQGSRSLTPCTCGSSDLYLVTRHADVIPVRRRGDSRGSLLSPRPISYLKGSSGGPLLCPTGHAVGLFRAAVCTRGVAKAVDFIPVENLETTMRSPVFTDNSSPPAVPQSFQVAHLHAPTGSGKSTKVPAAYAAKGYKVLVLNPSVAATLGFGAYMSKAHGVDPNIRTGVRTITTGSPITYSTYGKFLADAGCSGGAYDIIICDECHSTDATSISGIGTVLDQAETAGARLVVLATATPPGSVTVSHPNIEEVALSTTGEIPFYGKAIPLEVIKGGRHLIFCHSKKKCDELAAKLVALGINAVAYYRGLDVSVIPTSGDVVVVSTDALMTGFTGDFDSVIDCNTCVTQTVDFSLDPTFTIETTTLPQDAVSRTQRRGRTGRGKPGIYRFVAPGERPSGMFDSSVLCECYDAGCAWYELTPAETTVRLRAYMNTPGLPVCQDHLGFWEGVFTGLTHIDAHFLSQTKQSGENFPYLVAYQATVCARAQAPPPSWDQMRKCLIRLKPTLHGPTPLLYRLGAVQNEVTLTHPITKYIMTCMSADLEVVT
row,Structure (SMILES),IC50 [nM]
1,"CC(C)(C)OC(=O)N[C@H]1CCCCC/C=C\[C@@H]2C[C@@]2(C(=O)O)NC(=O)[C@@H]2C[C@@H](OC(=O)N3CCc4ccccc4C3CN3CCCCC3)CN2C1=O (stereo partly drawn) [AR00301383, (1S,4R,6S,14S,18R)-14-tert-Butoxycarbonylamino-2,15-dioxo-18-(1-piperidin-1-ylmethyl-3,4-dihydro-1H-isoquinoline-2-carbonyloxy)-3,16-diaza-tricyclo[14.3.0.0^4,6]nonadec-7-ene-4-carboxylic acid]",< 10000
2,"CC(C)C(=O)N[C@H]1CCCCC/C=C\[C@@H]2C[C@@]2(C(=O)O)NC(=O)[C@@H]2C[C@@H](OC(=O)N3CCc4ccccc4C3)CN2C1=O [AR00248688, (1S,4R,6S,14S,18R)-18-(3,4-Dihydro-1H-isoquinoline-2-carbonyloxy)-14-isobutyrylamino-2,15-dioxo-3,16-diaza-tricyclo[14.3.0.0^4,6]nonadec-7-ene-4-carboxylic acid]",< 10000
3,"COc1ccc2c(c1)CCN(C(=O)O[C@@H]1C[C@H]3C(=O)N[C@]4(C(=O)O)C[C@H]4/C=C\CCCCC[C@H](NC(=O)OC(C)(C)C)C(=O)N3C1)C2CN(C)C (stereo partly drawn) [AR00333277, (1S,4R,6S,14S,18R)-14-tert-Butoxycarbonylamino-18-(1-dimethylaminomethyl-6-methoxy-3,4-dihydro-1H-isoquinoline-2-carbonyloxy)-2,15-dioxo-3,16-diaza-tricyclo[14.3.0.0^4,6]nonadec-7-ene-4-carboxylic acid]",< 10000
4,CC(C)(C)OC(=O)N[C@H]1CCCCCCC[C@@H]2C[C@@]2(C(=O)O)NC(=O)[C@@H]2C[C@@H](OC(=O)N3CCc4ccccc4C3)CN2C1=O [AR00312023],< 1000
5,"CC(C)(C)OC(=O)N[C@H]1CCCCC/C=C\[C@@H]2C[C@@]2(C(=O)O)NC(=O)[C@@H]2C[C@@H](NC(=O)N3CCc4ccccc4C3)CN2C1=O [AR00287262, (1S,4R,6S,14S,18R)-14-tert-butoxycarbonylamino-18-[(3,4-dihydro-1H-isoquinoline-2-carbonyl)-amino]-2,15-dioxo-3,16-diaza-tricyclo[14.3.0.0^4,6]nonadec-7-ene-4-carboxylic acid]",< 10000
6,"O=C(N[C@H]1CCCCC/C=C\[C@@H]2C[C@@]2(C(=O)O)NC(=O)[C@@H]2C[C@@H](OC(=O)N3CCc4ccccc4C3)CN2C1=O)C1CCCC1 [AR00248689, (1S,4R,6S,14S,18R)-14-(Cyclopentanecarbonyl-amino)-18-(3,4-dihydro-1H-isoquinoline-2-carbonyloxy)-2,15-dioxo-3,16-diaza-tricyclo[14.3.0.0^4,6]nonadec-7-ene-4-carboxylic acid]",< 1000
7,"CN(C)CCOc1ccc2c(c1)CN(C(=O)O[C@@H]1C[C@H]3C(=O)N[C@]4(C(=O)O)C[C@H]4/C=C\CCCCC[C@H](NC(=O)OC(C)(C)C)C(=O)N3C1)C2 [AR00371947, (1S,4R,6S,14S,18R)-14-tert-Butoxycarbonylamino-18-[5-(2-dimethylamino-ethoxy)-1,3-dihydro-isoindole-2-carbonyloxy]-2,15-dioxo-3,16-diaza-tricyclo[14.3.0.0^4,6]nonadec-7-ene-4-carboxylic acid]",< 1000
8,"O=C(N[C@H]1CCCCC/C=C\[C@@H]2C[C@@]2(C(=O)O)NC(=O)[C@@H]2C[C@@H](OC(=O)N3CCc4ccccc4C3)CN2C1=O)OC1CCCC1 [AR00247310, (1S,4R,6S,14S,18R)-14-Cyclopentyloxycarbonylamino-18-(3,4-dihydro-1H-isoquinoline-2-carbonyloxy)-2,15-dioxo-3,16-diaza-tricyclo[14.3.0.0^4,6]nonadec-7-ene-4-carboxylic acid]",< 1000
9,"CC(=O)Nc1nc2c(s1)CN(C(=O)O[C@@H]1C[C@H]3C(=O)N[C@]4(C(=O)O)C[C@H]4/C=C\CCCCC[C@H](NC(=O)OC(C)(C)C)C(=O)N3C1)CC2 [AR00314685, (1S,4R,6S,14S,18R)-18-(2-Acetylamino-6,7-dihydro-4H-thiazolo[5,4-c]pyridine-5-carbonyloxy)-14-tert-butoxycarbonylamino-2,15-dioxo-3,16-diaza-tricyclo[14.3.0.0^4,6]nonadec-7-ene-4-carboxylic acid]",< 50000
10,"CC(C)(C)OC(=O)N[C@H]1CCCCC/C=C\[C@@H]2C[C@@]2(C(=O)O)NC(=O)[C@@H]2C[C@@H](OC(=O)N3CCc4c([nH]c5ccccc45)C3)CN2C1=O [AR00226825, (1S,4R,6S,14S,18R)-14-tert-Butoxycarbonylamino-2,15-dioxo-18-(1,3,4,9-tetrahydro-b-carboline-2-carbonyloxy)-3,16-diaza-tricyclo[14.3.0.0^4,6]nonadec-7-ene-4-carboxylic acid]",< 10000

# The next lines start with the values.
row,IC50 [nM],Structure (SMILES)
1,< 10000,"O=C(N[C@H]1CCCCC/C=C\[C@@H]2C[C@@]2(C(=O)O)NC(=O)[C@@H]2C[C@@H](OC(=O)N3Cc4cc(Cl)c(Cl)cc4C3)CN2C1=O)O[C@@H]1CCOC1 [AR00320445, (1S,4R,6S,14S,18R)-18-(5,6-Dichloro-1,3-dihydro-isoindole-2-carbonyloxy)-2,15-dioxo-14-(tetrahydro-furan-3R-yloxycarbonylamino)-3,16-diaza-tricyclo[14.3.0.0^4,6]nonadec-7-ene-4-carboxylic acid]"
2,< 1000,"O=C(NC1CCOC1)N[C@H]1CCCCC/C=C\[C@@H]2C[C@@]2(C(=O)O)NC(=O)[C@@H]2C[C@@H](OC(=O)N3CCc4ccccc4C3)CN2C1=O (stereo partly drawn) [AR00320221, (1S,4R,6S,14S,18R)-18-(3,4-Dihydro-1H-isoquinoline-2-carbonyloxy)-2,15-dioxo-14-[3-(tetrahydro-furan-3-yl)-ureido]-3,16-diaza-tricyclo[14.3.0.0^4,6]nonadec-7-ene-4-carboxylic acid]"
3,< 1000,"CC(C)(C)C(=O)N[C@H]1CCCCC/C=C\[C@@H]2C[C@@]2(C(=O)O)NC(=O)[C@@H]2C[C@@H](OC(=O)N3CCc4ccccc4C3)CN2C1=O [AR00248687, (1S,4R,6S,14S,18R)-18-(3,4-Dihydro-1H-isoquinoline-2-carbonyloxy)-14-(2,2-dimethyl-propionylamino)-2,15-dioxo-3,16-diaza-tricyclo[14.3.0.0^4,6]nonadec-7-ene-4-carboxylic acid]"
4,< 100,"COCC1c2cccc(F)c2CCN1C(=O)O[C@@H]1C[C@H]2C(=O)N[C@]3(C(=O)NS(=O)(=O)C4CC4)C[C@H]3/C=C\CCCCC[C@H](N)C(=O)N2C1 (stereo partly drawn) [AR00424775, (1S,4R,6S,14S,18R)-5-Fluoro-1-methoxymethyl-3,4-dihydro-1H-isoquinoline-2-carboxylic acid 14-amino-4-cyclopropanesulfonylaminocarbonyl-2,15-dioxo-3,16-diaza-tricyclo[14.3.0.0^4,6]nonadec-7-en-18-yl ester, HCl salt]"
5,< 100,"N[C@H]1CCCCC/C=C\[C@@H]2C[C@@]2(C(=O)NS(=O)(=O)C2CC2)NC(=O)[C@@H]2C[C@@H](OC(=O)N3Cc4cccc(F)c4C3)CN2C1=O [AR00424874, (1S,4R,6S,14S,18R)-4-Fluoro-1,3-dihydro-isoindole-2-carboxylic acid 14-amino-4-cyclopropanesulfonylaminocarbonyl-2,15-dioxo-3,16-diaza-tricyclo[14.3.0.0^4,6]nonadec-7-en-18-yl ester, HC1 salt]"
